From PubChem BioAssay AID190 (DTP/NCI, 2004)
Where “and” joins values, the source holds several entries; their conditions need not be identical. Equal entries are not always repeated. Inconclusive results and toxic doses are left out.

Tested on: AKR/Lw mice, AKR lymphoma ip, median survival T/C
Experiment: NCI In Vivo Anticancer Drug Screen. Data for tumor model Lymphoma AKR (Transplanted) (intraperitoneal) in AKR/Lw mice
Settings: endpoint: median survival time, higher = longer survival
Protocol: The antitumor activity of compounds was measured in mice bearing transplantable tumors. Survival or tumor size were measured and the results are expressed as the measurement made in the treated group (T) divided by the measurement made in the vehicle treated control group (C). The tumor model used in this assay is Lymphoma AKR (Transplanted) (intraperitoneal) in AKR/Lw mice

[1] = dose: 50.0 mg/kg/injection, schedule: Q01DX001 (ip), vehicle: saline
[2] = dose: 100.0 mg/kg/injection, schedule: Q01DX001 (ip), vehicle: saline
[3] = dose: 200.0 mg/kg/injection, schedule: Q01DX001 (ip), vehicle: saline
[4] = dose: 400.0 mg/kg/injection, schedule: Q01DX001 (ip), vehicle: saline
[5] = dose: 100.0 mg/kg/injection, schedule: Q01DX001 (ip), vehicle: Klucel (hydroxypropylcellulose) (HPC)
[6] = dose: 200.0 mg/kg/injection, schedule: Q01DX001 (ip), vehicle: Klucel (hydroxypropylcellulose) (HPC)
[7] = dose: 400.0 mg/kg/injection, schedule: Q01DX001 (ip), vehicle: Klucel (hydroxypropylcellulose) (HPC)

COC(=O)c1ccc(NCC(C)(C)N)cc1
T/C (dose: 12.5 mg/kg/injection, schedule: Q01DX001 (ip), vehicle: saline): 100 % of control
T/C (dose: 25.0 mg/kg/injection, schedule: Q01DX001 (ip), vehicle: saline): 94 % of control
T/C [1]: 88 % of control

O=c1[nH]cc(-c2ccccc2)c(=O)[nH]1
T/C [2]: 94 % of control
T/C [3]: 88 % of control
T/C [4]: 97 % of control

CC12CCCC(=O)C1CC/C(=C\c1ccco1)C2=O (stereo not given)
T/C [2]: 109 % of control
T/C [3]: 100 % of control
T/C [4]: 100 % of control

CN(C)CCCNC(=O)Nc1ccccc1
T/C [5]: 103 % of control
T/C [6]: 93 % of control

Cc1c(C(=O)O)cc2n(c1=O)Cc1cc3ccccc3nc1-2
T/C [1]: 102 % of control
T/C (dose: 50.0 mg/kg/injection, schedule: Q04DX003 (ip), vehicle: saline with Tween-80): 93 % of control
T/C [2]: 100 % of control
T/C (dose: 100.0 mg/kg/injection, schedule: Q04DX003 (ip), vehicle: saline with Tween-80): 100 % of control
T/C [3]: 94 % of control

O=C1N[C@@H]([C@H]2CC[C@H](Cl)CN2)C(=O)N[C@H]1[C@H]1CC[C@H](Cl)CN1
T/C (dose: 0.5 mg/kg/injection, schedule: Q01DX001 (ip), vehicle: water): 113 % of control
T/C (dose: 1.0 mg/kg/injection, schedule: Q01DX001 (ip), vehicle: water): 111 % of control
T/C (dose: 2.0 mg/kg/injection, schedule: Q01DX001 (ip), vehicle: saline): 102 % of control and 105 % of control
T/C (dose: 2.0 mg/kg/injection, schedule: Q01DX001 (ip), vehicle: water): 114 % of control and 119 % of control
T/C (dose: 2.0 mg/kg/injection, schedule: Q01DX009 (ip), vehicle: water): 178 % of control
T/C (dose: 4.0 mg/kg/injection, schedule: Q01DX001 (ip), vehicle: saline): 102 % of control
T/C (dose: 4.0 mg/kg/injection, schedule: Q01DX001 (ip), vehicle: water): 117 % of control
T/C (dose: 8.0 mg/kg/injection, schedule: Q01DX001 (ip), vehicle: saline): 122 % of control
T/C (dose: 8.0 mg/kg/injection, schedule: Q01DX001 (ip), vehicle: water): 171 % of control and 200 % of control
T/C (dose: 16.0 mg/kg/injection, schedule: Q01DX001 (ip), vehicle: saline): 108 % of control
T/C (dose: 16.0 mg/kg/injection, schedule: Q01DX001 (ip), vehicle: water): 207 % of control

Brc1cc(Br)c(-c2c(Br)cc(Br)cc2Br)c(Br)c1
T/C [5]: 103 % of control
T/C [6]: 100 % of control
T/C [7]: 96 % of control

C[C@@H]1C[C@H]2[C@@H]3CCC4=CC(=O)C=C[C@]4(C)[C@@]3(F)[C@@H](O)C[C@]2(C)[C@@]1(O)C(=O)CO
T/C (dose: 0.25 mg/kg/injection, schedule: Q01DX004 (sc), vehicle: saline): 121 % of control
T/C (dose: 0.5 mg/kg/injection, schedule: Q01DX004 (sc), vehicle: saline): 103 % of control and 110 % of control
T/C (dose: 1.0 mg/kg/injection, schedule: Q01DX004 (sc), vehicle: saline): 103 % of control and 121 % of control
T/C (dose: 1.8 mg/kg/injection, schedule: Q01DX004 (sc), vehicle: saline): 89 % of control
T/C (dose: 2.6 mg/kg/injection, schedule: Q01DX004 (sc), vehicle: saline): 103 % of control
T/C (dose: 4.0 mg/kg/injection, schedule: Q01DX004 (sc), vehicle: saline): 103 % of control
T/C (dose: 4.5 mg/kg/injection, schedule: Q01DX004 (sc), vehicle: saline): 96 % of control

O=[N+]([O-])O.[Th]
T/C [2]: 113 % of control
T/C [3]: 109 % of control
T/C [4]: 104 % of control

C#CCn1cnc2c(Cl)ncnc21
T/C [5]: 97 % of control
T/C [6]: 104 % of control
T/C [7]: 107 % of control

NC(Cc1ccc([N+](=O)[O-])cc1)C(=O)O (stereo not given)
T/C [2]: 94 % of control
T/C [3]: 96 % of control
